{
  "source": "patent US7576222B2",
  "about": "“Alkynyl-containing tryptophan derivative inhibitors of TACE/matrix metalloproteinase” (priority 2004, dated 2009)",
  "data": [
    {"target": "T1, catalytic domain of the recombinant TACE protein (Homo sapiens, UniProt P78536)", "T1 construct": "The catalytic domain of the recombinant TACE protein was expressed and purified; made in house", "T1 sequence (P78536 223-474 limits assumed)": "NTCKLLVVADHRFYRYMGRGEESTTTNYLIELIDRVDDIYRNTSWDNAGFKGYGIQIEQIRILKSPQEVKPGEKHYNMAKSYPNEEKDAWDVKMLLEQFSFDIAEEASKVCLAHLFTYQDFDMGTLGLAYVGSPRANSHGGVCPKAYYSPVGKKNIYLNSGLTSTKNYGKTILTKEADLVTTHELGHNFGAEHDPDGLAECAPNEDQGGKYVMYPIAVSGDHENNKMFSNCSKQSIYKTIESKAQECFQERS", "assay": "TACE FRET assay using TACE cat", "assay_type": "biochemical", "details": "not given", "protocol": "(§1) TACE FRET Assay Using TACE Cat\n(§2) “K” is the IC50. Generally, “n” and “B” are floated, noting that n (Hill slope) should be close to 1 and B (background offset) to 0.\n(§3) Pro-TNF-α substrate peptide Abz-[…]-Dpa (AnaSpec, San Jose, Calif., WARC-1) was prepared as a 2 mM stock solution in the TACE assay buffer (50 mM Tris-HCl, pH 7.4, 25 mM NaCl, 4% Glycerol, 0.005% Brij 35). The catalytic domain of the recombinant TACE protein was expressed and purified. The TACE protein (1 ug/ml) was pretreated with the inhibitors at various concentrations for 10 min. at room temperature. The reaction was initiated by the addition of the substrate peptide. […] The initial rate (slope) of the reaction was determined using a fluorescence plate reader (Molecular Devices, Spectra Max Gemini XS).", "units": {"IC50": "µM"}, "values": [
      {"molecule": "CC#CCOc1ccc(S(=O)(=O)N[C@@H](Cc2cn(Cc3ccccc3F)c3ccc(OC)cc23)C(=O)O)cc1", "note": "[Example 58, N-{[4-(but-2-ynyloxy)phenyl]sulfonyl}-1-(2-fluorobenzyl)-5-methoxytryptophan]", "IC50": 2.24},
      {"molecule": "CC#CCOc1ccc(S(=O)(=O)N[C@@H](Cc2c[nH]c3cc(C)ccc23)C(=O)O)cc1", "note": "[Example 8, N-{[4-(but-2-ynyloxy)phenyl]sulfonyl}-6-methyltryptophan]", "IC50": 1.57},
      {"molecule": "CC#CCOc1ccc(S(=O)(=O)N[C@@H](Cc2c[nH]c3ccc(O)cc23)C(=O)O)cc1", "note": "[Example 5, N-{[4-(but-2-ynyloxy)phenyl]sulfonyl}-5-hydroxytryptophan]", "IC50": 1.61},
      {"molecule": "CC#CCOc1ccc(S(=O)(=O)N[C@@H](Cc2c(C)n(Cc3ccccc3F)c3ccc(OC)cc23)C(=O)O)cc1", "note": "[Example 197, N-{[4-(but-2-ynyloxy)phenyl]sulfonyl}-1-(2-fluorobenzyl)-5-methoxy-2-methyltryptophan]", "IC50": 0.3},
      {"molecule": "CC#CCOc1ccc(S(=O)(=O)N[C@@H](Cc2cn(Cc3cccc(C(F)(F)F)c3)c3ccc(OC)cc23)C(=O)O)cc1", "note": "[Example 56, N-{[4-(but-2-ynyloxy)phenyl]sulfonyl}-5-methoxy-1-[3-(trifluoromethyl)benzyl]tryptophan]", "IC50": 2.07},
      {"molecule": "CC#CCOc1ccc(S(=O)(=O)N[C@@H](Cc2c(C)n(Cc3ccccc3)c3ccc(OC)cc23)C(=O)O)cc1", "note": "[Example 185, 1-benzyl-N-{[4-(but-2-ynyloxy)phenyl]sulfonyl}-5-methoxy-2-methyltryptophan]", "IC50": 0.2},
      {"molecule": "CC#CCOc1ccc(S(=O)(=O)N[C@@H](Cc2c[nH]c3cc(F)ccc23)C(=O)O)cc1", "note": "[Example 7, N-{[4-(but-2-ynyloxy)phenyl]sulfonyl}-6-fluorotryptophan]", "IC50": 2.96},
      {"molecule": "CC#CCOc1ccc(S(=O)(=O)N[C@@H](Cc2c(C)n(Cc3ccc(C)cc3)c3ccc(OC)cc23)C(=O)O)cc1", "note": "[Example 188, N-{[4-(but-2-ynyloxy)phenyl]sulfonyl}-5-methoxy-2-methyl-1-(4-methylbenzyl)tryptophan]", "IC50": 0.27}
    ]},
    {"target": "T1, catalytic domain of the recombinant TACE protein", "assay": "TACE FRET assay using TACE cat", "assay_type": "biochemical", "details": "TACE FRET assay, catalytic domain of recombinant TACE; read-out: TACE IC50", "protocol": "as §1, §2, §3", "units": {"IC50": "µM"}, "values": [
      {"molecule": "CC#CCOc1ccc(S(=O)(=O)N[C@H](Cc2cn(Cc3ccc(Cl)cc3)c3ccccc23)C(=O)O)cc1", "note": "[Example 42, N-{[4-(but-2-ynyloxy)phenyl]sulfonyl}-1-(4-chlorobenzyl)-D-tryptophan]", "IC50": 3.45},
      {"molecule": "CC#CCOc1ccc(S(=O)(=O)N[C@@H](Cc2cn(Cc3ccc(OC)cc3)c3ccccc23)C(=O)O)cc1", "note": "[Example 19, N-{[4-(but-2-ynyloxy)phenyl]sulfonyl}-1-(4-methoxybenzyl)-L-tryptophan]", "IC50": 1.19},
      {"molecule": "N-{[4-(but-2-ynyloxy)phenyl]sulfonyl}-methoxy-L(or D)-tryptophan [Example 222]", "IC50": 10.1}
    ]},
    {"target": "T1, catalytic domain of the recombinant TACE protein", "assay": "TACE FRET assay using TACE cat", "assay_type": "biochemical", "details": "read-out: TACE Inhibition (%)", "protocol": "as §1, §2, §3", "units": {"inhibition at 1 µM": "%"}, "values": [
      {"molecule": "CC#CCOc1ccc(S(=O)(=O)N[C@@H](Cc2c(C)n(Cc3ccccc3C#N)c3ccccc23)C(=O)O)cc1", "note": "[Example 158, N-{[4-(but-2-ynyloxy)phenyl]sulfonyl}-1-(2-cyanobenzyl)-2-methyltryptophan]", "inhibition at 1 µM": 72.1},
      {"molecule": "CC#CCOc1ccc(S(=O)(=O)N[C@@H](Cc2c[nH]c3ccc(Cl)cc23)C(=O)O)cc1", "note": "[Example 133, N-{[4-(but-2-ynyloxy)phenyl]sulfonyl}-5-chlorotryptophan]", "inhibition at 1 µM": 73.9},
      {"molecule": "CC#CCOc1ccc(S(=O)(=O)N[C@@H](Cc2cn(Cc3cc(OC)cc(OC)c3)c3ccc(OC)cc23)C(=O)O)cc1", "note": "[Example 54, N-{[4-(but-2-ynyloxy)phenyl]sulfonyl}-1-(3,5-dimethoxybenzyl)-5-methoxytryptophan]", "inhibition at 1 µM": 38},
      {"molecule": "CC#CCOc1ccc(S(=O)(=O)N[C@@H](Cc2cn(Cc3ccc(Cl)cc3)c3ccc(OC)cc23)C(=O)O)cc1", "note": "[Example 62, N-{[4-(but-2-ynyloxy)phenyl]sulfonyl}-1-(4-chlorobenzyl)-5-methoxytryptophan]", "inhibition at 1 µM": 39.3},
      {"molecule": "CC#CCOc1ccc(S(=O)(=O)N[C@@H](Cc2c(C)n(Cc3cccc(F)c3)c3ccccc23)C(=O)O)cc1", "note": "[Example 153, N-{[4-(but-2-ynyloxy)phenyl]sulfonyl}-1-(3-fluorobenzyl)-2-methyltryptophan]", "inhibition at 1 µM": 55.9},
      {"molecule": "CC#CCOc1ccc(S(=O)(=O)N[C@@H](Cc2cn(Cc3ccccc3C)c3ccc(C(=O)O)cc23)C(=O)O)cc1", "note": "[Example 104, N-{[4-(but-2-ynyloxy)phenyl]sulfonyl}-5-carboxy-1-(2-methylbenzyl)tryptophan]", "inhibition at 1 µM": 5.79},
      {"molecule": "CC#CCOc1ccc(S(=O)(=O)N[C@@H](Cc2c(C)n(Cc3ccc(C(=O)O)cc3)c3ccc(OC)cc23)C(=O)O)cc1", "note": "[Example 207, N-{[4-(but-2-ynyloxy)phenyl]sulfonyl}-1-(4-carboxybenzyl)-5-methoxy-2-methyltryptophan]", "inhibition at 1 µM": 62.1},
      {"molecule": "CC#CCOc1ccc(S(=O)(=O)N[C@@H](Cc2cn(Cc3ccc(C(C)C)cc3)c3ccc(C(=O)O)cc23)C(=O)O)cc1", "note": "[Example 120, N-{[4-(but-2-ynyloxy)phenyl]sulfonyl}-5-carboxy-1-(4-isopropylbenzyl)tryptophan]", "inhibition at 1 µM": 10},
      {"molecule": "CC#CCOc1ccc(S(=O)(=O)N[C@@H](Cc2cn(Cc3ccccc3OC)c3ccc(C#N)cc23)C(=O)O)cc1", "note": "[Example 137, N-{[4-(but-2-ynyloxy)phenyl]sulfonyl}-5-cyano-1-(2-methoxybenzyl)tryptophan]", "inhibition at 1 µM": 12.1},
      {"molecule": "CC#CCOc1ccc(S(=O)(=O)N[C@@H](Cc2c(C)n(Cc3ccccc3)c3ccccc23)C(=O)O)cc1", "note": "[Example 144, 1-benzyl-N-{[4-(but-2-ynyloxy)phenyl]sulfonyl}-2-methyltryptophan]", "inhibition at 1 µM": 18.8},
      {"molecule": "CC#CCOc1ccc(S(=O)(=O)N[C@@H](Cc2cn(Cc3ccccc3)c3ccc(Cl)cc23)C(=O)O)cc1", "note": "[Example 71, 1-benzyl-N-{[4-(but-2-ynyloxy)phenyl]sulfonyl}-5-chlorotryptophan]", "inhibition at 1 µM": -1.19},
      {"molecule": "CC#CCOc1ccc(S(=O)(=O)N[C@@H](Cc2c(C)n(Cc3ccccc3C#N)c3ccc(OC)cc23)C(=O)O)cc1", "note": "[Example 203, N-{[4-(but-2-ynyloxy)phenyl]sulfonyl}-1-(2-cyanobenzyl)-5-methoxy-2-methyltryptophan]", "inhibition at 1 µM": 56.8},
      {"molecule": "CC#CCOc1ccc(S(=O)(=O)N[C@H](Cc2cn(Cc3ccc(O)cc3)c3ccccc23)C(=O)O)cc1", "note": "[Example 214, N-{[4-(but-2-ynyloxy)phenyl]sulfonyl}-1-(4-hydroxybenzyl)-D-tryptophan]", "inhibition at 1 µM": 8.77},
      {"molecule": "CC#CCOc1ccc(S(=O)(=O)N[C@@H](Cc2c(C)n(CC(C)C)c3ccc(Cl)cc23)C(=O)O)cc1", "note": "[Example 101, N-{[4-(but-2-ynyloxy)phenyl]sulfonyl}-5-chloro-1-isobutyl-2-methyltryptophan]", "inhibition at 1 µM": 68.5},
      {"molecule": "CC#CCOc1ccc(S(=O)(=O)N[C@@H](Cc2cn(Cc3ccccc3)c3ccc(C#N)cc23)C(=O)O)cc1", "note": "[Example 135, 1-benzyl-N-{[4-(but-2-ynyloxy)phenyl]sulfonyl}-5-cyanotryptophan]", "inhibition at 1 µM": 29.6},
      {"molecule": "CC#CCOc1ccc(S(=O)(=O)N[C@@H](Cc2c(C)n(CC(C)C)c3ccc(OC)cc23)C(=O)O)cc1", "note": "[Example 210, N-{[4-(but-2-ynyloxy)phenyl]sulfonyl}-1-isobutyl-5-methoxy-2-methyltryptophan]", "inhibition at 1 µM": 66.6},
      {"molecule": "CC#CCOc1ccc(S(=O)(=O)N[C@@H](Cc2cn(Cc3ccc(C)cc3)c3ccc(C(=O)O)cc23)C(=O)O)cc1", "note": "[Example 106, N-{[4-(but-2-ynyloxy)phenyl]sulfonyl}-5-carboxy-1-(4-methylbenzyl)tryptophan]", "inhibition at 1 µM": 5.53},
      {"molecule": "CC#CCOc1ccc(S(=O)(=O)N[C@@H](Cc2cn(Cc3cccc(OC)c3)c3ccc(Cl)cc23)C(=O)O)cc1", "note": "[Example 75, N-{[4-(but-2-ynyloxy)phenyl]sulfonyl}-5-chloro-1-(3-methoxybenzyl)tryptophan]", "inhibition at 1 µM": 25},
      {"molecule": "CC#CCOc1ccc(S(=O)(=O)N[C@@H](Cc2cn(CC3CCCCC3)c3ccc(Cl)cc23)C(=O)O)cc1", "note": "[Example 87, N-{[4-(but-2-ynyloxy)phenyl]sulfonyl}-5-chloro-1-(cyclohexylmethyl)tryptophan]", "inhibition at 1 µM": 37.4},
      {"molecule": "CC#CCOc1ccc(S(=O)(=O)N[C@@H](Cc2cn(CC)c3ccc(C(=O)O)cc23)C(=O)O)cc1", "note": "[Example 128, N-{[4-(but-2-ynyloxy)phenyl]sulfonyl}-5-carboxy-1-ethyltryptophan]", "inhibition at 1 µM": -0.6},
      {"molecule": "CC#CCOc1ccc(S(=O)(=O)N[C@@H](Cc2cn(CC3CCC3)c3ccc(Cl)cc23)C(=O)O)cc1", "note": "[Example 86, N-{[4-(but-2-ynyloxy)phenyl]sulfonyl}-5-chloro-1-(cyclobutylmethyl)tryptophan]", "inhibition at 1 µM": 15.7},
      {"molecule": "CC#CCOc1ccc(S(=O)(=O)N[C@@H](Cc2cn(Cc3ccc(OC(F)(F)F)cc3)c3ccc(C(=O)O)cc23)C(=O)O)cc1", "note": "[Example 114, N-{[4-(but-2-ynyloxy)phenyl]sulfonyl}-5-carboxy-1-[4-(trifluoromethoxy)benzyl]tryptophan]", "inhibition at 1 µM": 10.3},
      {"molecule": "CC#CCOc1ccc(S(=O)(=O)N[C@@H](Cc2c(C)n(Cc3cccc(C)c3)c3ccc(OC)cc23)C(=O)O)cc1", "note": "[Example 187, N-{[4-(but-2-ynyloxy)phenyl]sulfonyl}-5-methoxy-2-methyl-1-(3-methylbenzyl)tryptophan]", "inhibition at 1 µM": 78.8},
      {"molecule": "CC#CCOc1ccc(S(=O)(=O)N[C@@H](Cc2cn(CC3CCCCC3)c3ccc(C(=O)O)cc23)C(=O)O)cc1", "note": "[Example 132, N-{[4-(but-2-ynyloxy)phenyl]sulfonyl}-5-carboxy-1-(cyclohexylmethyl)tryptophan]", "inhibition at 1 µM": 9.55}
    ]}
  ]
}
